Assay results reported in paper PMC8714961, “Involvement of P-gp on Reversing Multidrug Resistance Effects of 23-Hydroxybetulinic Acid on Chemotherapeutic Agents” (Frontiers in Pharmacology, 2021).
Where two headings read alike, the source gives them in different places. Marks after values point to notes of the source that are not given here. Each block holds one molecule with its values, some of them ahead of it.

How the values were obtained:
[1] = molecular target: T1, P-gp (Homo sapiens, UniProt P08183); details: for Folds (RE) of digoxin: vs control
Description: (§7) Briefly, MDCK-MDR1 cells (1×10^5/Well) were seeded onto 0.4 mm pore-size transwell inserts (Millipore, MA, United States) in 24-well plates.

[2] = test system: MCF-7/S cells; experiment: Trypan blue exclusion assay, MCF-7/S cells; type: cell-based; details: 0.2, 2 and 20 µM with ADR 0.08 µM or VCR 0.5 µM, 48 h
Description: (§1) MCF-7 (human breast carcinoma cells) and MCF-7/ADR (P-gp-overexpressing derivative cells) cell lines were obtained from Blood Diseases Hospital, Chinese Academy of Medica ([Shi et al., 2011]). The cells were routinely maintained in RPMI 1640 with 10% heat-inactivated fetal bovine serum (FBS), 1% non-essential amino acid solution, 0.1 mg/ml streptomycin, and 100 units/ml penicillin. Caco-2 cells were purchased from American Type Culture Collection (ATCC, Rockville, MD, United States). Vector-MDCK and MDR1-MDCK cells were purchased from PharmaResources Co., Ltd. (China). Both Caco-2 and MDCK cells were maintained at Dulbecco’s modified Eagle’s medium (DMEM) with 10% FBS, 1% non-essential amino acid solution, 0.1 mg/ml streptomycin, and 100 units/ml penicillin. MCF-7/ADR cells were treated with […] and were cultured in ADR-free medium for more than 14 days before the experiment. All cells were cultured at 37°C in a humidified atmosphere of 5% CO2.
(§2) Trypan blue exclusion assay was used to measure the viability of cells to compounds. Briefly, MCF-7/sensitive (MCF-7/S) and MCF-7/ADR cells were diluted into the density of 0.5×10^4 cells/ml, then cells (1 ml) were seeded in culture plates. […]. The viable and dead cells (stained in blue) were counted by haemacytometer.

[3] = molecular target: T1, P-gp; experiment: MDCK-MDR1 transport study, inhibition of VCR transport; details: for Folds (RE) of VCR: vs control
Description: Briefly, MDCK-MDR1 cells (1×10^5/Well) were seeded onto […] pore-size transwell inserts (Millipore, MA, United States) in 24-well plates.
(§3) The cells were rinsed with warmed Hank’s balanced salt solution (HBSS), and the inserts were incubated for 20 min at 37°C. […] Aliquots (50 µl) were taken from the receiver compartment at intervals of 30, 60, 90, and 120 min and replaced with fresh buffer. In the study, verapamil (VER), known P-gp inhibitor, was selected as positive control.
(§4) The apparent permeability values (Papp) were evaluated in all experiments according to the following equation: Papp=dQ/dt/AC0 (1) where A means the insert area and C0 represents the initial concentration. dQ/dt represents the slope of the cumulative content transported during the time course of the period studied.

[4] = test system: MCF-7/S cells; experiment: ADR/VCR accumulation study in MCF-7/S cells; details: ADR/VCR 5 µM, test compound 0.2, 2, 20 µM, 1 h
Description: (§8) MCF-7 cells (1×10^5/Well) were incubated in 24-well plates. […] After 1 h incubation, the compound solution was aspirated to stop further accumulation, and the monolayers were rinsed with cold Hank’s solution for three times. The drug content was detected by lysing the cells with ultrasound, and then the single well lysate was transferred to a plastic EP tube for further analysis. The protein concentration of the cells was measured using Coomassie brilliant blue.

[5] = test system: MCF-7/ADR cells; experiment: Hoechst assay (apoptosis); type: cell-based, human; details: for Number of apoptosis cells, single agent: vs control group
Description: MCF-7/ADR cells were collected and cultured at the density of 2.0 × 10^5/well in 24-well plates. […] The cells were dyed with Hoechst 33,342 (Beyotime, Shanghai, China) in the dark at 37°C for 30 min after washing with phosphate buffered saline (PBS). The morphological changes of the nucleus were evaluated by a fluorescence microscope.

[6] = molecular target: T1, P-gp; experiment: MDR1 shift assay (UIC2 binding); type: cell-based; design: endogenous in cells; host or cells: MCF-7/ADR; details: 25 µM, MCF-7/ADR cells, vs solvent control
Description: The monoclonal antibody UIC2 (2.5 μl) was added and incubated for 15 min, then 1 ml of cold binding buffer was used to terminate reaction. The cells were rinsed twice, followed by adding cold phycoerythrin-labeled anti-mouse IgG (250 μl) for another 15 min in the dark. Finally, cells were rinsed and incubated in cold binding buffer (250 μl) and further evaluated by flow cytometer (Cytomics FC 500; Beckman Coulter, Fullerton, CA). In this study, vincristine (25 µM) was set as positive control.

[7] = test system: MCF-7/ADR cells; experiment: ADR/VCR accumulation study in MCF-7/ADR cells; details: ADR/VCR 5 µM, test compound 0.2, 2, 20 µM, 1 h
Description: as §8

[8] = test system: MCF-7/ADR cells; experiment: Trypan blue exclusion assay, MCF-7/ADR cells; type: cell-based; details: for Cytotoxicity of combination exposure with ADR to MCF-7/ADR: 0–20 µM with ADR 3 µM; for Cell toxicity as a single agent: 0–20 µM
Description: as §1, §2

[9] = molecular target: T1, P-gp; experiment: Caco-2 uptake study (digoxin, VCR)
Description: Briefly, the cells (1×10^5/Well) were cultured in 24-well plates, and culture medium was changed every other day. The uptake study was taken when the monolayers formed. […] After 2 h incubation, the drug solution was removed to terminate reaction, and the monolayers were washed three times with cold Hank’s solution. The other steps were taken according to the above process in Adriamycin/Vincristine Accumulation Study.

[10] = test system: MDCK-MDR1 cell monolayers; experiment: MDCK-MDR1 transport of BA/23-HBA with or without verapamil; details: for Folds (RE): +VER (verapamil 20 µM) vs without VER
Description: (§5) Briefly, MDCK-MDR1 cells (1×10^5/Well) were seeded onto […] pore-size transwell inserts (Millipore, MA, United States) in 24-well plates. Cells were cultured for 5–7 days, when the transepithelial electrical resistance (TEER) values were 120–240 Ω cm^2.
as §3, §4
(§6) The efflux ratio (ER) was detected according to the ratio of Papp as the following equation: ER=Papp(B−A)/Papp(A−B) (2)

[11] = test system: P-gp; experiment: as above; details: dog
Description: as §5, §3, §4, §6

[12] = molecular target: T1, P-gp; experiment: in vitro; details: dog, MDCK-MDR1
Description: as §7

[13] = digoxin 5 µM with test compound 0.2 µM
[14] = digoxin 5 µM with test compound 2 µM
[15] = digoxin 5 µM with test compound 20 µM
[16] = compound 0.2 µM, +VER (verapamil 20 µM)
[17] = compound 0.2 µM, without verapamil
[18] = compound 2 µM, +VER (verapamil 20 µM)
[19] = compound 2 µM, without verapamil
[20] = compound 20 µM, +VER (verapamil 20 µM)
[21] = compound 20 µM, without verapamil
[22] = MDCK-MDR1, with verapamil 20 µM

T1 sequence (P08183 whole entry): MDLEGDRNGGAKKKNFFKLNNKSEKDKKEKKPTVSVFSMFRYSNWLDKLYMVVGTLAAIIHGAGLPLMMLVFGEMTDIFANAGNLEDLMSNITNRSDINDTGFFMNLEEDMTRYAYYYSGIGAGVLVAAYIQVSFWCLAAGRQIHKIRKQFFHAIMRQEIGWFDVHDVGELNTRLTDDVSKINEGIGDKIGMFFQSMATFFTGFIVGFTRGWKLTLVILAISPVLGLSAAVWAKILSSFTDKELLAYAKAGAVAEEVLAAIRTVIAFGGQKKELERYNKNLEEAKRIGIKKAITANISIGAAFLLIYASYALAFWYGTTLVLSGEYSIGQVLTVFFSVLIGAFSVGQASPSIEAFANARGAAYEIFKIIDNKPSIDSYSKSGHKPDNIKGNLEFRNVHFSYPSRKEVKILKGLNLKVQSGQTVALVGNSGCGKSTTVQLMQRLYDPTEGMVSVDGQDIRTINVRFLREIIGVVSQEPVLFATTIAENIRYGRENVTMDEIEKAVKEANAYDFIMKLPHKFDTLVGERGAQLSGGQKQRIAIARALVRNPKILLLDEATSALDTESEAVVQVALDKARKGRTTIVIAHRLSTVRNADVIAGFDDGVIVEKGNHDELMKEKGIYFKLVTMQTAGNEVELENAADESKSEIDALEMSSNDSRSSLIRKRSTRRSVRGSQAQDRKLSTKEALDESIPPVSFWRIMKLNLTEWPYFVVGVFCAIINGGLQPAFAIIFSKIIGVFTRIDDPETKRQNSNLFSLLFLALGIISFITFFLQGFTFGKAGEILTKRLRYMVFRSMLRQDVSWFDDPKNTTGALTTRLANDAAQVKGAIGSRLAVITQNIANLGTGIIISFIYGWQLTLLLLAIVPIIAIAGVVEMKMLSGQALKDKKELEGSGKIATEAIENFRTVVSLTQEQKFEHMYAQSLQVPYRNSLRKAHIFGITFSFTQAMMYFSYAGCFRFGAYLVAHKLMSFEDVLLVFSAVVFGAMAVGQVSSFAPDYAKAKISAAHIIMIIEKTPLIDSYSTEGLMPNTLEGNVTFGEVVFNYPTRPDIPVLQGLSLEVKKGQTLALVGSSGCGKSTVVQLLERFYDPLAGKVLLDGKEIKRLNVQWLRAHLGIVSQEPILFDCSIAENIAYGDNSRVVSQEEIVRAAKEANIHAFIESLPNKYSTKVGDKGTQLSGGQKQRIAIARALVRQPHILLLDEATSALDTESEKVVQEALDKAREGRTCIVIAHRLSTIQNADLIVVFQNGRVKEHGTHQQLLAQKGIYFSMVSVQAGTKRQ

SMILES: C=C(C)[C@@H]1CC[C@]2(C(=O)O)CC[C@]3(C)[C@H](CC[C@@H]4[C@@]5(C)CC[C@H](O)[C@@](C)(CO)[C@@H]5CC[C@]43C)[C@@H]12 [23-HBA, 23-hydroxybetulinic acid]
RE (net efflux) of digoxin [1, 13]: 31.57
Folds (RE) of digoxin [1, 13]: 1.16
RE (net efflux) of digoxin [1, 14]: 27.96
Folds (RE) of digoxin [1, 14]: 1.31
RE (net efflux) of digoxin [1, 15]: 2.69
Folds (RE) of digoxin [1, 15]: 13.61
Effect on cytotoxicity of MCF-7/S cells to ADR or VCR [2]: neither 23-HBA nor BA showed significant effects on cytotoxicity
Papp A→B of VCR ([3]; VCR with test compound 0.2 µM): 0.69 ± 0.30 ×10^−6 cm s^−1
Papp B→A of VCR ([3]; VCR with test compound 0.2 µM): 4.45 ± 1.12 ×10^−6 cm s^−1
RE (net efflux) of VCR ([3]; VCR with test compound 0.2 µM): 6.41
Folds (RE) of VCR ([3]; VCR with test compound 0.2 µM): 1.70
Papp A→B of VCR ([3]; VCR with test compound 2 µM): 2.49 ± 0.59 ×10^−6 cm s^−1
Papp B→A of VCR ([3]; VCR with test compound 2 µM): 0.39 ± 0.01 ×10^−6 cm s^−1
RE (net efflux) of VCR ([3]; VCR with test compound 2 µM): 0.16
Folds (RE) of VCR ([3]; VCR with test compound 2 µM): 70.15
Papp A→B of VCR ([3]; VCR with test compound 20 µM): 2.19 ± 1.74 ×10^−6 cm s^−1
Papp B→A of VCR ([3]; VCR with test compound 20 µM): 0.48 ± 0.08 ×10^−6 cm s^−1
RE (net efflux) of VCR ([3]; VCR with test compound 20 µM): 0.22
Folds (RE) of VCR ([3]; VCR with test compound 20 µM): 49.32
Accumulation of ADR/VCR in sensitive MCF-7 cells [4]: little impact was observed
Number of apoptosis cells, single agent ([5]; 20 µM alone): not obviously different with the control group
Apoptosis caused by ADR in combination exposure ([5]; 2 and 20 µM with ADR 3 µM): dose-dependent (2 and 20 μM) increase in the apoptosis caused by ADR
Fluorescence intensity of UIC2 binding (MDR1 shift) [6]: fluorescence intensity showed slight increase
Intracellular accumulation of ADR/VCR in resistant MCF-7 cells [7]: obviously increased
Cytotoxicity of combination exposure with ADR to MCF-7/ADR [8]: showed significant cytotoxicity to MCF-7/ADR
Cell toxicity as a single agent [8]: no cell toxicity was detected
Effect on cytotoxicity of MCF-7/ADR cells to ADR or VCR ([8]; 0.2, 2 and 20 µM with ADR 3 µM or VCR 6 µM, 48 h): can increase cytotoxicity of MCF-7/ADR cells to ADR or VCR in concentration-dependent manner
Inhibitory effect compared with verapamil (20 µM) in Caco-2 cells ([9]; 20 µM): higher than that of verapamil
Effect on uptake of VCR and digoxin in Caco-2 cells (P-gp inhibition) ([9]; 0.2, 2 and 20 µM, 2 h): showed dose-dependent increase on the penetration of VCR and digoxin
ER values ([10]; MDCK-MDR1 cells, all the concentrations (0.2–20 µM)): less than 1.5
Papp A-B [10, 16]: 8.49 ± 1.39 ×10^−6 cm s^−1
Papp B-A [10, 16]: 5.20 ± 0.59 ×10^−6 cm s^−1
RE (net efflux) [10, 16]: 0.61**
Folds (RE) ([10]; compound 0.2 µM): 0.41
Papp A-B [10, 17]: 6.73 ± 0.09 ×10^−6 cm s^−1
Papp B-A [10, 17]: 10.01 ± 1.38 ×10^−6 cm s^−1
RE (net efflux) [10, 17]: 1.49
Papp A-B [10, 18]: 10.03 ± 3.22 ×10^−6 cm s^−1
Papp B-A [10, 18]: 7.83 ± 0.32 ×10^−6 cm s^−1
RE (net efflux) [10, 18]: 0.78*
Folds (RE) ([10]; compound 2 µM): 0.63
Papp A-B [10, 19]: 7.07 ± 0.64 ×10^−6 cm s^−1
Papp B-A [10, 19]: 8.75 ± 0.31 ×10^−6 cm s^−1
RE (net efflux) [10, 19]: 1.24
Papp A-B [10, 20]: 12.76 ± 1.13 ×10^−6 cm s^−1
Papp B-A [10, 20]: 7.47 ± 1.64 ×10^−6 cm s^−1
RE (net efflux) [10, 20]: 0.59
Folds (RE) ([10]; compound 20 µM): 0.82
Papp A-B [10, 21]: 5.95 ± 0.94 ×10^−6 cm s^−1
RE (net efflux) [10, 21]: 0.72

SMILES: COc1cccc2c1C(=O)c1c(O)c3c(c(O)c1C2=O)C[C@@](O)(C(=O)CO)C[C@@H]3O[C@H]1C[C@H](N)[C@H](O)[C@H](C)O1 [ADR, Adriamycin, reference compound]
Number of apoptosis cells, single agent ([5]; 3 µM alone): not obviously different with the control group

SMILES: C=C(C)[C@@H]1CC[C@]2(C(=O)O)CC[C@]3(C)[C@H](CC[C@@H]4[C@@]5(C)CC[C@H](O)C(C)(C)[C@@H]5CC[C@]43C)[C@@H]12 [BA, Betulinic acid]
Effect on cytotoxicity of MCF-7/S cells to ADR or VCR [2]: neither 23-HBA nor BA showed significant effects on cytotoxicity
Accumulation of ADR/VCR in sensitive MCF-7 cells [4]: little impact was observed
Number of apoptosis cells, single agent ([5]; 20 µM alone): not obviously different with the control group
Cytotoxicity of combination exposure with ADR to MCF-7/ADR [8]: not observed
Cell toxicity as a single agent [8]: no cell toxicity was detected
Folds (RE) ([10]; compound 0.2 µM): 0.66
Folds (RE) ([10]; compound 2 µM): 0.75
Folds (RE) ([10]; compound 20 µM): 0.78
Papp A→B at 120 min, 0.2 µM ([11]; MDCK-MDR1): 61.2 ± 9.36 ×10⁻⁶ cm/s
Papp A→B at 120 min, 2 µM ([11]; MDCK-MDR1): 5.43 ± 0.5 ×10⁻⁶ cm/s
Papp A→B at 120 min, 20 µM ([11]; MDCK-MDR1): 0.72 ± 0.26 ×10⁻⁶ cm/s
Papp B→A at 120 min, 0.2 µM ([11]; MDCK-MDR1): 55.1 ± 9.8 ×10⁻⁶ cm/s
Papp B→A at 120 min, 2 µM ([11]; MDCK-MDR1): 6.51 ± 0.81 ×10⁻⁶ cm/s
Papp B→A at 120 min, 20 µM ([11]; MDCK-MDR1): 0.59 ± 0.14 ×10⁻⁶ cm/s
Papp A→B at 120 min, 0.2 µM [11, 22]: 105 ± 10.5 ×10⁻⁶ cm/s
Papp A→B at 120 min, 2 µM [11, 22]: 7.65 ± 1.53 ×10⁻⁶ cm/s
Papp A→B at 120 min, 20 µM [11, 22]: 0.26 ± 0.05 ×10⁻⁶ cm/s
Papp B→A at 120 min, 0.2 µM [11, 22]: 62.1 ± 4.71 ×10⁻⁶ cm/s
Papp B→A at 120 min, 2 µM [11, 22]: 6.9 ± 0.76 ×10⁻⁶ cm/s
Papp B→A at 120 min, 20 µM [11, 22]: 0.17 ± 0.05 ×10⁻⁶ cm/s

Papp A→B at 120 min ([3]; dog, MDCK-MDR1): 0.35 ± 0.17 ×10⁻⁶ cm/s
Papp B→A at 120 min ([3]; dog, MDCK-MDR1): 3.86 ± 0.71 ×10⁻⁶ cm/s
efflux ratio at 120 min ([3]; dog, MDCK-MDR1): 10.9
SMILES: CC[C@]1(O)C[C@H]2CN(CCc3c([nH]c4ccccc34)[C@@](C(=O)OC)(c3cc4c(cc3OC)N(C=O)[C@H]3[C@@](O)(C(=O)OC)[C@H](OC(C)=O)[C@]5(CC)C=CCN6CC[C@]43[C@@H]65)C2)C1 [VCR, Vincristine, reference compound]

Papp A→B at 120 min, 5 µM [12]: 0.31 ± 0.05 ×10⁻⁶ cm/s
RE (net efflux) of digoxin ([1]; Control: digoxin 5 µM alone, MDCK-MDR1 monolayers): 36.56
SMILES: C[C@H]1O[C@@H](O[C@H]2[C@@H](O)C[C@H](O[C@H]3[C@@H](O)C[C@H](O[C@H]4CC[C@@]5(C)[C@H](CC[C@@H]6[C@@H]5C[C@@H](O)[C@]5(C)[C@@H](C7=CC(=O)OC7)CC[C@]65O)C4)O[C@@H]3C)O[C@@H]2C)C[C@H](O)[C@@H]1O [digoxin, reference compound]
